The test system of data set [1] is NCI-H460 human large cell lung carcinoma xenograft. In words: Antitumor activity in NCI-H460 subcutaneous xenograft in athymic nude mice, combination with cisplatin (Example 4). The class given is in vivo. As to conditions: day 12. The protocol:
The NCI-H460 human large cell lung carcinoma cell line was purchased from American Type Culture Collection (MD, U.S.A.). The cells were cultured in RPMI-1640 medium (cat. # R8758, lot 12K2310, exp 01/03; lot 82K2497, exp 08/03; Sigma-Aldrich corporation, MO, U.S.A.) supplemented with 10% (v/v) fetal bovine serum (cat. # 047115, lot # 31300124; Roche Diagnostics KK, Tokyo, Japan).
Sixty of 5-week-old male athymic nude mice (BALB/c nu/nu) were purchased from Charles River Japan, Inc. (Yokohama, Japan). All mice were kept for 8 days in the animal facility of Kamakura Research Laboratories of Chugai Pharmaceutical Co., Ltd. before subjection to the experiment.
The title compound was synthesized at Kamakura Research Laboratories of Chugai Pharmaceutical Co., Ltd. CDDP (Randa™, lot # 924150) was obtained from Nippon Kayaku Co., Ltd. (Tokyo, Japan). The title compound was dissolved in dimethyl sulfoxide (DMSO) and diluted into 2.5 % DMSO solution with saline (for Injection; Ohtsuka Pharmaceutical Industry Co., Ltd., Tokushima, Japan) at the date of administration. CDDP was diluted with saline at the date of administration.
The in vivo evaluation procedure for anticancer drugs was based on the methods described by Plowman, et al. (1997) for xenograft models. See, “Anticancer Drug Development Guide: Preclinical Screening, Clinical Trials, and Approval, Teicher B (ed) pp. 101-125, specifically Chap. 6, “Human Tumor Xenograft Models in NCI Drug Development”, hereby incorporated by reference. A single cell suspension of NCI-H460 (5.6×10^6 cells per mouse) was inoculated subcutaneously into the right flank of each mouse. The tumor volume was estimated by using the equation ab^2/2, where a and b represent tumor length and width, respectively. Mice bearing tumors of between 150 and 245 mm^3 were selected on day 7 after tumor inoculation and were randomly divided into 8 groups, consisting of 5 mice each. Mean tumor volume and body weight of the selected mice were 187 mm3 and 24.3 g, respectively. Drug administration was initiated after mice were divided into groups. The title compound (2 mg/kg or 3 mg/kg), CDDP (5 mg/kg or 6.7 mg/kg) and each vehicle were administered intravenously. Tumor volume and body weight of each mouse were measured twice a week. […] Tumor growth inhibition was calculated using the equation (1-ΔT/ΔC)×100, where ΔT represents the difference in tumor volume from the initial treatment date of the treated group and ΔC represents the difference in tumor volume from the initial treatment date of the vehicle group.

For data set [2], the system named is HT-29 human colorectal adenocarcinoma xenograft. The class given is in vivo. As to conditions: day 31. The protocol:
The HT-29 human colorectal adenocarcinoma cell line was purchased from American Type Culture Collection (Rockville, MD, U.S.A.). The cells were cultured in McCoy's 5a medium (Sigma-Aldrich Corporation, MO, U.S.A.) supplemented with 10% (v/v) fetal bovine serum (Roche Diagnostics KK, Tokyo, Japan).
Sixty of 5-week-old male athymic nude mice (BALB/c nu/nu) were purchased from Charles River Japan, Inc. (Yokohama, Japan). All mice were kept for 9 days in the animal facility of Kamakura Research Laboratories of Chugai Pharmaceutical Co., Ltd. before subjection to the experiment.
Capecitabine was dissolved by the 40 milli mol/L citrate buffered-5% Gum arabic solution (pH 6.0; Chugai Pharmaceutical Co., Ltd.).
The in vivo evaluation procedure for anticancer drugs was based on the methods described by Plowman, et al. (1997) for xenograft models. See, “Anticancer Drug Development Guide: Preclinical Screening, Clinical Trials, and Approval, Teicher B (ed) pp. 101-125, specifically Chap. 6, “Human Tumor Xenograft Models in NCI Drug Development”, hereby incorporated by reference. A single cell suspension of HT-29 (1.1×10^7 cells per mouse) was inoculated subcutaneously into the right flank of each mouse. The tumor volume was estimated by using the equation ab^2/2, where a and b represent tumor length and width, respectively. Mice bearing tumors of between 172 and 282 mm^3 were selected on day 10 after tumor inoculation and were randomly divided into 7 groups, consisting of 6 mice each. Mean tumor volume and body weight of the selected mice were 217 mm^3 and 25.0 g respectively. Drug administration was initiated after mice were divided into groups. […] Capecitabine (359 mg/kg or 539 mg/kg) and its vehicle were administered orally. Tumor volume and body weight of each mouse were measured twice a week. […] Tumor growth inhibition was calculated using the equation (1-ΔT/ΔC)×100, where ΔT represents the difference in tumor volume from the initial treatment date of the treated group and ΔC represents the difference in tumor volume from the initial treatment date of the vehicle group.

The nature of data set [3]: Maximum tolerated dose (neither lethality nor more than 20% body weight loss) in mice. The conditions noted are these: BALB/c nu/nu (athymic nude), mouse, in vivo, dose with neither lethality nor more than 20% body weight loss; for MTD at 14 days: oral. From the text:
The in vivo evaluation procedure for anticancer drugs was based on the methods described by Plowman, et al. (1997) for xenograft models. See, “Anticancer Drug Development Guide: Preclinical Screening, Clinical Trials, and Approval, Teicher B (ed) pp. 101-125, specifically Chap. 6, “Human Tumor Xenograft Models in NCI Drug Development”, hereby incorporated by reference.
See, “Anticancer Drug Development Guide: Preclinical Screening, Clinical Trials, and Approval, Teicher B (ed) pp. 101-125, specifically Chap. 6, “Human Tumor Xenograft Models in NCI Drug Development”, hereby incorporated by reference.
The in vivo evaluation procedure for anticancer drugs was based on the methods described by Plowman, et al. (1997) for xenograft models. See, “Anticancer Drug Development Guide: Preclinical Screening, Clinical Trials, and Approval, Teicher B (ed) pp. 101-125, specifically Chap.

The test system of data set [4] is Calu-6 human lung cancer xenograft. Format: in vivo. As to conditions: 80 mg/kg (2/3 MTD) i.v. weekly x2; day 32. The protocol:
The Calu-6 human lung carcinoma cell line was purchased from American Type Culture Collection (MD, U.S.A.). The cells were cultured in Eagle's MEM (Sigma-Aldrich corporation, MO, U.S.A.) supplemented with 0.1 milli mol/L Non-essential amino acids (Invitrogen corporation, CA, U.S.A.), 1 milli mol/L sodium pyruvate (Invitrogen corporation, CA, U.S.A.), and 10% (v/v) fetal bovine serum (Roche Diagnostics KK, Tokyo, Japan).
60 of 5-week-old male athymic nude mice (BALB/c nu/nu) were purchased from Charles River Japan, Inc. (Yokohama, Japan). All mice were kept for 8 days in the animal facility of Kamakura Research Laboratories of Chugai Pharmaceutical Co., Ltd. before subjection to the experiment.
The title compound was synthesized at Kamakura Research Laboratories of Chugai Pharmaceutical Co., Ltd. Irinotecan (Topotecin™, lot. No. EQAZF13) was obtained from Daiichi Pharmaceutical Co., Ltd. (Tokyo, Japan). The title compound was dissolved in dimethyl sulfoxide (DMSO) and diluted into 2.5 % DMSO solution with saline (For Injection; Ohtsuka Pharmaceutical Industry Co., Ltd., Tokushima, Japan) at the date of administration. Irinotecan was diluted with saline at the date of administration.
The in vivo evaluation procedure for anticancer drugs was based on the methods described by Plowman, et al. (1997) for xenograft models. See, “Anticancer Drug Development Guide: Preclinical Screening, Clinical Trials, and Approval, Teicher B (ed) pp. 101-125, specifically Chap. 6, “Human Tumor Xenograft Models in NCI Drug Development”, hereby incorporated by reference. A single cell suspension of Calu-6 (5.7×10^6 cells per mouse) was inoculated subcutaneously into the right flank of each mouse. The tumor volume was estimated by using the equation ab^2/2, where a and b represent tumor length and width, respectively. Mice bearing tumors of between 181 and 326 mm^3 were selected on day 11 after tumor inoculation and were randomly divided into 10 groups, consisting of 5 mice each. […] Drug administration was initiated after mice were randomized and divided into groups. The tide compound (0.375 mg/kg; 0.75 mg/kg; 1.5 mg/kg or 3 mg/kg), irinotecan (80 mg/kg) and each vehicles were administered intravenously. Tumor volume and body weight of each mouse were measured twice a week. […] Tumor growth inhibition was calculated by using the equation (1-ΔT/ΔC)×100, where ΔT represents the tumor volume difference from the initial treatment date of treated group and ΔC represents the tumor volume difference from the initial treatment date of vehicle group.

SMILES strings stand for the structures. Structures can show the parent of a compound that is named as a salt. Where two headings read alike, the source gives them in different places.

Turning to `N.N.[Cl][Pt][Cl]` [CDDP, cis-diamminedichloroplatinum, reference compound], the “reduction of tumor growth” value in data set [1] (5 mg/kg (1/2 MTD) i.v. on first day) was found to be 56%; in data set [1] (6.7 mg/kg (2/3 MTD) i.v. on first day), 66%.

For orientation: MTD means the highest dose tested that stayed within the study's limit of toxicity. Read a high MTD as better tolerability. For `CCCCCOC(=O)Nc1nc(=O)n([C@@H]2O[C@H](C)[C@@H](O)[C@H]2O)cc1F` [capecitabine, reference compound], the “reduction of tumor growth” value was found to be 32% in data set [2] (359 mg/kg (2/3 MTD) p.o. daily for 14 days) and 50% in data set [2] (539 mg/kg (MTD) p.o. daily for 14 days). Further, the MTD at 14 days in data set [3] (359 mg/kg) turned out to be 359 mg/kg; in data set [3], 539 mg/kg.

Compound `CCc1c2c(nc3ccc(OC(=O)N4CCC(N5CCCCC5)CC4)cc13)-c1cc3c(c(=O)n1C2)COC(=O)[C@]3(O)CC` [irinotecan, irinotecan hydrochloride, reference compound] registered a tumor growth inhibition in data set [4] of 68%. This compound also returned a maximum tolerated dose (MTD) in data set [3] of 120 mg/kg.
